pIC50: −log10 of the molar value.
How the values were obtained:
CDK12 = CDK12 (Homo sapiens (Human), UniProt Q9NYV4); experiment: Radiometric protein kinase assay (33PanQinase), Assay Condition B (thiol-free); format: biochemical; conditions: thiol-free (1 mM TCEP)
Method: The IC50 profile of compounds was determined using one protein kinase in a customized, thiol free assay. […] Prior to testing, the 1×10^−03 M stock solutions in column 2 of the master plates were subjected to a serial, semi-logarithmic dilution using 100% DMSO as a solvent. […] Column 1 and 7 were filled with 100% DMSO as controls. Subsequently, 2×10 microliter from each well of the serial diluted copy plates were aliquoted with a 96 channel pipettor into two identical sets of “compound dilution plates”. All plates were barcoded for automated identification and tracking purposes. […] All compounds were stored as powder until being solubilized in DMSO. Solubilized compounds were stored as 1×10^−02M/100% DMSO stock solutions. Prior to the assay process, 90 microliters of H2O were added to each well of a set of compound dilution plates. To minimize potential precipitation, the H2O was added to each plate only a few minutes before the transfer of the compound solutions into the assay plates. Each plate was shaken thoroughly, resulting in compound dilution plates with a final of 10% DMSO. For each assay, 5 microliters of solution from each well of the compound dilution plates/10% DMSO were transferred into the assay plate. The final volume of the assay was 50 μl. All compounds were tested at 10 final assay concentrations in the range from 1×10^−05M to 3×10^−10 M, in singlicate. The final DMSO concentration in the reaction cocktails was 1% in all cases. […] This was done so there would be no interference with the key cysteines in the proteins of interest.
For data analysis, the median value of the counts in column 1 (n=8) of each assay plate was defined as “low control”. This value reflects unspecific binding of radioactivity to the plate in the absence of a protein kinase but in the presence of the substrate. The median value of the counts in column 7 of each assay plate (n=8) was taken as the “high control”, i.e. full activity in the absence of any inhibitor. The difference between high and low control was taken as 100% activity. As part of the data evaluation the low control value from a particular plate was subtracted from the high control value as well as from all 80 “compound values” of the corresponding plate. The residual activity (in %) for each well of a particular plate was calculated by using the following formula: Res. Activity (%)=100×[(cpm of compound−low control)/(high control−low control)]
The fitting method used was a least-squares fit.

CDK12 wt/CycK = CDK12 wt/CycK (Homo sapiens (Human), UniProt Q9NYV4); experiment: Radiometric protein kinase assay (33PanQinase), Assay Condition A (thiol containing); format: biochemical; conditions: thiol containing (1.2 mM DTT), ATP 0.3 μM
CDK12 wt/CycK, sequence (Q9NYV4 whole entry): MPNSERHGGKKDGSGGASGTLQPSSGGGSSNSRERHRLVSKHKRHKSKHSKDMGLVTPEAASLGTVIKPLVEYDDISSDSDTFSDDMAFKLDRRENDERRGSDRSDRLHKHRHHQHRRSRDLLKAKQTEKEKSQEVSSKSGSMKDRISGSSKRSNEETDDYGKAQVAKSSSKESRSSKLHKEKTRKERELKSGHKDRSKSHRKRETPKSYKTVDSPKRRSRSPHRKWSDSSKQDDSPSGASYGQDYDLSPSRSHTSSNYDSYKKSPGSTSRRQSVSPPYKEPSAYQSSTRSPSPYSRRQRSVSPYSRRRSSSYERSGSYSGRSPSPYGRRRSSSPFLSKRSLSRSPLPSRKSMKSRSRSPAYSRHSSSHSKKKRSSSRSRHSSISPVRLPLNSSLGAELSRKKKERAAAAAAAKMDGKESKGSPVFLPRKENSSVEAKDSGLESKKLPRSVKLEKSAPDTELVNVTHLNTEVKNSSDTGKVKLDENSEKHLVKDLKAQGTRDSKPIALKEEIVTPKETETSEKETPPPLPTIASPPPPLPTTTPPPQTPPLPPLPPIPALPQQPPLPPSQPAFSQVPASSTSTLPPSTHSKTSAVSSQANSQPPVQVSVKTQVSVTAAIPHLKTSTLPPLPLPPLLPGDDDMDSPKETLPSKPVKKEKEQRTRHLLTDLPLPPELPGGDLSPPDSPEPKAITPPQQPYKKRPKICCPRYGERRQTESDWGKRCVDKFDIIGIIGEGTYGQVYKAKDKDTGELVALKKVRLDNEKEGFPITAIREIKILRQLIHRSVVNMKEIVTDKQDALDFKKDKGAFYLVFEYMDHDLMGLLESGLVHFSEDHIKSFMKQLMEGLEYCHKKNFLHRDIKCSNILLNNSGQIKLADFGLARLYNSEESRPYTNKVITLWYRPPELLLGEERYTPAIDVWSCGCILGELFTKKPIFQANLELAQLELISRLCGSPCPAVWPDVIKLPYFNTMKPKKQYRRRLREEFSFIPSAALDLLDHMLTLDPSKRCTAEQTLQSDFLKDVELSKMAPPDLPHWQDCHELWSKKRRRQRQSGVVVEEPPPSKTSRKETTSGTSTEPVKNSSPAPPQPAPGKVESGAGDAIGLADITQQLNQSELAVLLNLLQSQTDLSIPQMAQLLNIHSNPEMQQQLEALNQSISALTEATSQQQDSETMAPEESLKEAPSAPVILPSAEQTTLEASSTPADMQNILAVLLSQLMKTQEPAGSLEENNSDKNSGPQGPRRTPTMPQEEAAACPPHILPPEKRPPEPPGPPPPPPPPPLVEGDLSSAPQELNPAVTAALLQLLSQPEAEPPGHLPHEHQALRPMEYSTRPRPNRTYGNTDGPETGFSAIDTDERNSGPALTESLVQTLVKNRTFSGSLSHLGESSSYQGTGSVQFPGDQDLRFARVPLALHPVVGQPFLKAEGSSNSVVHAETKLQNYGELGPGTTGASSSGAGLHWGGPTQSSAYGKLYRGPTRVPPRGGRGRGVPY
CDK12 wt/CycK, sequence (O75909 whole entry partner): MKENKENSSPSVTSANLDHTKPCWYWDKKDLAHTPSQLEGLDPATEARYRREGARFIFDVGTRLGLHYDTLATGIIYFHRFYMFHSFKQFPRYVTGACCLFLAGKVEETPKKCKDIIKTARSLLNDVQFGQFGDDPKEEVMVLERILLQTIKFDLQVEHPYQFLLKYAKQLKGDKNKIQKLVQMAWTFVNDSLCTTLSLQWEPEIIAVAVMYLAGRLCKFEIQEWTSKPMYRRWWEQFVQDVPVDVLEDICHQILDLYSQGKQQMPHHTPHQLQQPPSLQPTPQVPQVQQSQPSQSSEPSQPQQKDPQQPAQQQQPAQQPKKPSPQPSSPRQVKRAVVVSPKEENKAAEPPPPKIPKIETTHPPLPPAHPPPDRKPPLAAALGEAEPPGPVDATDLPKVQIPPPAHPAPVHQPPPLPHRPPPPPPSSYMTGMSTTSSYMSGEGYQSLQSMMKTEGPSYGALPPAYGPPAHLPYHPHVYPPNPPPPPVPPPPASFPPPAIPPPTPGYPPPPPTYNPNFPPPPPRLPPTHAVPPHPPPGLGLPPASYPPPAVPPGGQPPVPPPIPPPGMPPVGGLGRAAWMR
Procedure, shortened: (§1)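 Recombinant human kinases assayed radiometrically (33PanQinase) with 33P-ATP incorporation into substrate, 60 min at 30° C, thiol-containing buffer, 1% DMSO final. Ten concentrations from 1×10^−04M to 3×10^−09M tested in singlicate. Residual activity normalized to no-enzyme and no-inhibitor controls; IC50 by least-squares fit.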

CDK2 = CDK2 (Homo sapiens (Human), UniProt P24941); experiment: Radiometric protein kinase assay (33PanQinase), Assay Condition B (thiol-free); format: biochemical; conditions: thiol-free (1 mM TCEP)
Method: The IC50 profile of compounds was determined using one protein kinase in a customized, thiol free assay. […] Prior to testing, the 1×10^−03 M stock solutions in column 2 of the master plates were subjected to a serial, semi-logarithmic dilution using 100% DMSO as a solvent. […] Column 1 and 7 were filled with 100% DMSO as controls. Subsequently, 2×10 microliter from each well of the serial diluted copy plates were aliquoted with a 96 channel pipettor into two identical sets of “compound dilution plates”. All plates were barcoded for automated identification and tracking purposes. […] All compounds were stored as powder until being solubilized in DMSO. Solubilized compounds were stored as 1×10^−02M/100% DMSO stock solutions. Prior to the assay process, 90 microliters of H2O were added to each well of a set of compound dilution plates. To minimize potential precipitation, the H2O was added to each plate only a few minutes before the transfer of the compound solutions into the assay plates. Each plate was shaken thoroughly, resulting in compound dilution plates with a final of 10% DMSO. For each assay, 5 microliters of solution from each well of the compound dilution plates/10% DMSO were transferred into the assay plate. The final volume of the assay was 50 μl. All compounds were tested at 10 final assay concentrations in the range from 1×10^−05M to 3×10^−10 M, in singlicate. The final DMSO concentration in the reaction cocktails was 1% in all cases. […]
For data analysis, the median value of the counts in column 1 (n=8) of each assay plate was defined as “low control”. This value reflects unspecific binding of radioactivity to the plate in the absence of a protein kinase but in the presence of the substrate. […] The residual activity (in %) for each well of a particular plate was calculated by using the following formula: Res. Activity (%)=100×[(cpm of compound−low control)/(high control−low control)]
The residual activities for each concentration and the compound IC50 values were calculated using Quattro Workflow V3.1.1 (Quattro Research GmbH, Munich, Germany; www.quattro-research.com). […]

CDK2/CycA2 = CDK2/CycA2 (Homo sapiens (Human), UniProt P24941); experiment: Radiometric protein kinase assay (33PanQinase), Assay Condition A (thiol containing); format: biochemical; conditions: thiol containing (1.2 mM DTT), ATP 0.3 μM
Procedure, shortened: as §1

CDK7/CycH/MAT1 = CDK7/CycH/MAT1 (Homo sapiens (Human), UniProt P50613); experiment: as above; format: biochemical; conditions: thiol containing (1.2 mM DTT), ATP 3.0 μM
CDK7/CycH/MAT1, sequence (P50613 whole entry): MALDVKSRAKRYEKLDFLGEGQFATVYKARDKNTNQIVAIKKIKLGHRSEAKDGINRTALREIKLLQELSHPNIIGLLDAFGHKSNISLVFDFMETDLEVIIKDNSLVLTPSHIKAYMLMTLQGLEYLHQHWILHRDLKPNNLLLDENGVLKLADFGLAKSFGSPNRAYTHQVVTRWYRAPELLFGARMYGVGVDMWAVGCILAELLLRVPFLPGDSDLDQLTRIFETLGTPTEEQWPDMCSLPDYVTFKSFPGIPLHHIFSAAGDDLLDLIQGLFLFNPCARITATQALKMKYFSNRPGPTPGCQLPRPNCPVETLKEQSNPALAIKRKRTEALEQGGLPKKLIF
CDK7/CycH/MAT1, sequence (P51946 whole entry partner): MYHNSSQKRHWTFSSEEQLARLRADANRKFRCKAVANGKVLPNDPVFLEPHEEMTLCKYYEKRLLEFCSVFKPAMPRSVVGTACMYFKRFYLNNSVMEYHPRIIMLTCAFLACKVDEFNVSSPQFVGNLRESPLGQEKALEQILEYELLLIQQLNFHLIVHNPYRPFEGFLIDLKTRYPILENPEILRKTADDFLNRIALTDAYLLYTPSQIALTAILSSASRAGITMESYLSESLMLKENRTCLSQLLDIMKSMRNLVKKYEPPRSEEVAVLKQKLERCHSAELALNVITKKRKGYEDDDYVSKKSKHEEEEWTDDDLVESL
CDK7/CycH/MAT1, sequence (P51948 whole entry partner): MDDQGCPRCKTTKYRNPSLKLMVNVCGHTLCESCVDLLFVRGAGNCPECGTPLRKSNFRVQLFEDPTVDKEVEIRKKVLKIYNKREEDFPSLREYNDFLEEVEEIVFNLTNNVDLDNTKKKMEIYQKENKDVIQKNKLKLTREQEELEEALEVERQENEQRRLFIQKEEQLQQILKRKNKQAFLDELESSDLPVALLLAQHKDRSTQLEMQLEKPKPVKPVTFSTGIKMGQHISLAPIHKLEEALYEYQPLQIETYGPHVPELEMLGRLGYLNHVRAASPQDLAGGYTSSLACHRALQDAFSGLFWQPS
Procedure, shortened: as §1

[1] = tested on: panel of 1,151 cancer cell lines; conditions: in 52% of a panel of 1,151 cancer cell lines (Kwiatkowski, 2014); cited from earlier work

CDK12, sequence (Q9NYV4 whole entry): as the sequence (Q9NYV4 whole entry) above
CDK12, sequence (O75909 whole entry partner): as the sequence (O75909 whole entry partner) above

Compound | pIC50 (CDK12) | pIC50 (CDK12 wt/CycK) | pIC50 (CDK2) | pIC50 (CDK2/CycA2) | pIC50 (CDK7/CycH/MAT1) | pIC50 [1]
C=CC(=O)Nc1ccc(C(=O)N2CC[C@@H](Nc3ncc4ccc(S(C)(=O)=O)cc4n3)C2)cc1 [Example 33, (R)-N-(4-(3-((7-(methylsulfonyl)quinazolin-2-yl)amino)pyrrolidine-1-carbonyl)phenyl)acrylamide] | > 7.00 | ≥ 7.00 |  |  |  | 
C=CC(=O)Nc1ccc(C(=O)N2CC[C@@H](Nc3ncc4ccc(OC)cc4n3)C2)cc1 [Example 34, (R)-N-(4-(3-((7-methoxyquinazolin-2-yl)amino)pyrrolidine-1-carbonyl)phenyl)acrylamide] | > 7.00 | ≥ 7.00 |  |  |  | 
C=CC(=O)Nc1ccc(C(=O)N2CC[C@@H](Nc3ncc4ccc(=O)n(C(C)C)c4n3)C2)cc1 [Example 43, (R)—N-(4-(3-((8-isopropyl-7-oxo-7,8-dihydropyrido[2,3-d]pyrimidin-2-yl)amino)pyrrolidine-1-carbonyl)phenyl)acrylamide] | > 7.00 | ≥ 7.00 |  |  |  | 
C=CC(=O)Nc1ccc(C(=O)N2CC[C@@H](Nc3ncc4ccccc4n3)C2)cc1F [Example 62, (R)—N-(2-fluoro-4-(3-(quinazolin-2-ylamino)pyrrolidine-1-carbonyl)phenyl)acrylamide] | > 7.00 | ≥ 7.00 |  |  |  | 
C=CC(=O)Nc1ccc(C(=O)N2CC[C@@H](Nc3ncc4ccccc4n3)C2)cc1C [Example 72, (R)—N-(2-methyl-4-(3-(quinazolin-2-ylamino)pyrrolidine-1-carbonyl)phenyl)acrylamide] | > 7.00 | ≥ 7.00 | 5.00 to 6.00 | 5.00 to 6.00 | 5.00 to 6.00 | 
C=CC(=O)N(C)c1ccc(C(=O)N2CC[C@@H](Nc3ncc4ccccc4n3)C2)cc1 [Example 74, (R)—N-methyl-N-(4-(3-(quinazolin-2-ylamino)pyrrolidine-1-carbonyl)phenyl)acrylamide] |  |  | 5.00 to 6.00 | 5.00 to 6.00 |  | 
C=C(CC)C(=O)Nc1ccc(C(=O)N2CC[C@@H](Nc3ncc4ccccc4n3)C2)cc1 [Example 94, (R)-2-methylene-N-(4-(3-(quinazolin-2-ylamino)pyrrolidine-1-carbonyl)phenyl)butanamide] |  | 6.00 to 7.00 |  | 5.00 to 6.00 | 5.00 to 6.00 | 
C=CS(=O)(=O)Nc1ccc(C(=O)N2CC[C@@H](Nc3ncc4ccccc4n3)C2)cc1 [Example 95, (R)—N-(4-(3-(quinazolin-2-ylamino)pyrrolidine-1-carbonyl)phenyl)ethenesulfonamide] |  | 6.00 to 7.00 |  | 5.00 to 6.00 | 6.00 to 7.00 | 
C=CC(=O)Nc1ccc(C(=O)N2C[C@H](Nc3ncc4ccccc4n3)[C@@H](C)C2)cc1 [Example 96, N-(4-((3S,4R)-3-methyl-4-(quinazolin-2-ylamino)pyrrolidine-1-carbonyl)phenyl)acrylamide] |  | 5.00 to 6.00 |  | 4.00 to 4.52 | 4.52 to 5.00 | 
CN(C)C/C=C/C(=O)Nc1ccc(C(=O)Nc2cccc(Nc3ncc(Cl)c(-c4c[nH]c5ccccc45)n3)c2)cc1 [THZ1] |  |  |  |  |  | > 6.70

More lines, main results first:

pIC50 (CDK12) | pIC50 (CDK12 wt/CycK) | pIC50 (CDK2) | pIC50 (CDK2/CycA2) | Compound | pIC50 (CDK7/CycH/MAT1) | pIC50 [1]
> 7.00 | ≥ 7.00 |  |  | C=CC(=O)Nc1ccc(C(=O)N2CC[C@@H](Nc3ncc4ccccc4n3)C2)cc1 [Example 26, (R)-N-(4-(3-(quinazolin-2-ylamino)pyrrolidine-1-carbonyl)phenyl)acrylamide] |  | 
> 7.00 | ≥ 7.00 |  |  | C=CC(=O)Nc1ccc(C(=O)N2CC[C@@H](Nc3ncc4cc(F)ccc4n3)C2)cc1 [Example 28, (R)-N-(4-(3-((6-fluoroquinazolin-2-yl)amino)pyrrolidine-1-carbonyl)phenyl)acrylamide] |  | 
> 7.00 | ≥ 7.00 |  |  | C=CC(=O)Nc1ccc(C(=O)N2CC[C@@H](Nc3ncc4ccc(C#N)cc4n3)C2)cc1 [Example 37, (R)—N-(4-(3-((7-cyanoquinazolin-2-yl)amino)pyrrolidine-1-carbonyl)phenyl)acrylamide] |  | 
6.00 to 7.00 | 6.00 to 7.00 |  |  | CCC(=O)Nc1ccc(C(=O)N2CC[C@@H](Nc3ncc4ccccc4n3)C2)cc1 [Example 44, (R)—N-(4-(3-(quinazolin-2-ylamino)pyrrolidine-1-carbonyl)phenyl)propionamide] |  | 
> 7.00 | ≥ 7.00 | 5.00 to 6.00 | 5.00 to 6.00 | C=CC(=O)Nc1ccc(C(=O)N2CC[C@@H](Nc3ncc4ccccc4n3)C2)cc1Cl [Example 88, (R)—N-(2-chloro-4-(3-(quinazolin-2-ylamino)pyrrolidine-1-carbonyl)phenyl)acrylamide] |  | 
